In US11234919B2, “Compound produced by means of marine microorganism and composition for improving skin wrinkles, enhancing elasticity and skin whitening comprising same compound as active ingredient” (KOREA INSTITUTE OF OCEAN SCIENCE & TECHNOLOGY, priority 2017, dated 2022):

Key:
[1] = test system: B-16 melanoma cells; assay: Melanogenesis inhibition in B-16 melanoma cell culture; format: cell-based; conditions: for Amount of melanin produced: absorbance at 400 nm per 10^6 cells, incubation 3 days
Protocol: The compounds shown in Table 1 were set to have final concentrations of 2 ppm and 20 ppm, and each of the compounds was added to a culture medium of B-16 melanoma cells, followed by incubation for 3 days. Thereafter, the cells were treated with trypsin, detached from the incubator, and centrifuged, and then melanin was extracted therefrom. The melanin was dissolved by addition of 1 mL of a sodium hydroxide solution (1 N) and boiling for 10 min, and then the absorbance was measured at 400 nm using a spectrometer, thereby determining the amount of melanin produced. The amount of melanin was measured as an absorbance per unit cell count (10^6 cells), and the amount of melanin production relative to the control with nothing added was calculated as an inhibition (%). The test was repeated three times.
To compare melanogenesis inhibiting activity of the compounds according to the present disclosure, 20 ppm arbutin was also tested by the same method, and the results are also shown in Table 3.

[2] = test system: human-derived fibroblasts; assay: Increase in collagen synthesis, PICP EIA kit, human fibroblast culture; format: cell-based; conditions: final concentration 20 ppm, incubation one day; for Amount of collagen production: amount of collagen production as absorbance at 450 nm; for Collagen increase (%): ratio of collagen production relative to control
Protocol: Out of the compounds represented by Formula 2, the compounds according to the present disclosure shown in Table 1 were tested for collagen synthesis stimulating activity by addition to cultures of human-derived fibroblasts.
The measurement of synthesized collagen was conducted by quantification using a procollagen type I C-peptide enzyme immunoassay kit (PICP EIA kit).
Collagen synthetic ability was evaluated by selecting the concentrations causing no toxicity on the basis of cytotoxicity results.
In the test, the final concentration of the compounds of the present disclosure was set to 20 ppm. Each sample was added to the culture medium of human fibroblasts, followed by incubation for one day, and then the culture was taken out, and the degree of collagen synthesis was measured at each concentration through the PICP EIA kit by using a spectrometer at 450 nm. For comparison of effects, the degree of collagen synthesis was measured by the same method on a culture medium of fibroblasts with nothing added (control) and a sample with vitamin C added to a final concentration of 20 ppm. The amount of collagen production was measured as a UV absorbance, and the rate of increase in collagen production was calculated as a ratio of collagen production relative to the collagen production of the control.

[3] = melanin production relative to control with nothing added, final concentration 2 ppm, 3 days
[4] = melanin production relative to control with nothing added, final concentration 20 ppm, 3 days

Structure (SMILES): C/C=C(\C)c1oc(=O)c(C)cc1C [Compound 5]
- Amount of melanin produced ([1]; final concentration 2 ppm): 0.049 ± 0.001
- Amount of melanin produced ([1]; final concentration 20 ppm): 0.047 ± 0.001
- Inhibition (%) [1, 3]: 18.3%
- Inhibition (%) [1, 4]: 21.8%
- Amount of collagen production [2]: 287.65
- Collagen increase (%) [2]: 152.2%

Structure (SMILES): CC/C=C(\C)c1oc(=O)c(CC)c(C)c1CC [Compound 10]
- Amount of melanin produced ([1]; final concentration 2 ppm): 0.049 ± 0.001
- Amount of melanin produced ([1]; final concentration 20 ppm): 0.047 ± 0.001
- Inhibition (%) [1, 3]: 18.3%
- Inhibition (%) [1, 4]: 21.8%
- Amount of collagen production [2]: 287.24
- Collagen increase (%) [2]: 147.2%

Structure (SMILES): C/C(=C\CO)c1cc(O)cc(=O)o1 [Compound 6]
- Amount of melanin produced ([1]; final concentration 2 ppm): 0.048 ± 0.001
- Amount of melanin produced ([1]; final concentration 20 ppm): 0.046 ± 0.001
- Inhibition (%) [1, 3]: 18.3%
- Inhibition (%) [1, 4]: 23.5%
- Amount of collagen production [2]: 287.61
- Collagen increase (%) [2]: 152.1%

Structure (SMILES): O=C1O[C@H]([C@@H](O)CO)C(O)=C1O [Vitamin C, vitamin C, reference compound]
- Amount of collagen production [2]: 217.35
- Collagen increase (%) [2]: 115.3%

Structure (SMILES): CC/C=C(\C)c1oc(=O)c(CC)c(O)c1CC [Compound 3]
- Amount of melanin produced ([1]; final concentration 2 ppm): 0.048 ± 0.001
- Amount of melanin produced ([1]; final concentration 20 ppm): 0.047 ± 0.001
- Inhibition (%) [1, 3]: 20.0%
- Inhibition (%) [1, 4]: 21.8%
- Amount of collagen production [2]: 287.24
- Collagen increase (%) [2]: 147.2%

Structure (SMILES): CCc1c(C)c(C(=O)O)c(/C(C)=C/CO)oc1=O [Compound 9]
- Amount of melanin produced ([1]; final concentration 2 ppm): 0.049 ± 0.001
- Amount of melanin produced ([1]; final concentration 20 ppm): 0.047 ± 0.001
- Inhibition (%) [1, 3]: 18.3%
- Inhibition (%) [1, 4]: 21.8%
- Amount of collagen production [2]: 287.61
- Collagen increase (%) [2]: 152.1%

Structure (SMILES): C=C(C)c1cc(O)cc(=O)o1 [Compound 1]
- Amount of melanin produced ([1]; final concentration 2 ppm): 0.047 ± 0.001
- Amount of melanin produced ([1]; final concentration 20 ppm): 0.046 ± 0.001
- Inhibition (%) [1, 3]: 21.8%
- Inhibition (%) [1, 4]: 23.5%
- Amount of collagen production [2]: 287.65
- Collagen increase (%) [2]: 152.2%

Structure (SMILES): OC[C@H]1O[C@@H](Oc2ccc(O)cc2)[C@H](O)[C@@H](O)[C@@H]1O [Arbutin, arbutin, reference compound]
- inhibition at 20 ppm ([1]; Mus musculus, B16, 72 h, melanin production relative to control with nothing added, final concentration 20 ppm, 3 days): 6.5%
- Amount of melanin produced ([1]; final concentration 20 ppm): 0.056 ± 0.001

Structure (SMILES): C=C(C)c1oc(=O)cc(O)c1C(=O)O [Compound 4]
- Amount of melanin produced ([1]; final concentration 2 ppm): 0.048 ± 0.001
- Amount of melanin produced ([1]; final concentration 20 ppm): 0.046 ± 0.001
- Inhibition (%) [1, 3]: 20.0%
- Inhibition (%) [1, 4]: 23.5%
- Amount of collagen production [2]: 287.61
- Collagen increase (%) [2]: 152.1%

Structure (SMILES): C/C=C(\C)c1oc(=O)c(C)c(O)c1C [Compound 2]
- Amount of melanin produced ([1]; final concentration 2 ppm): 0.048 ± 0.001
- Amount of melanin produced ([1]; final concentration 20 ppm): 0.046 ± 0.001
- Inhibition (%) [1, 3]: 20.0%
- Inhibition (%) [1, 4]: 23.5%
- Amount of collagen production [2]: 287.24
- Collagen increase (%) [2]: 147.2%
